Converted amounts (≈) assume the structure as drawn. Like-named read-outs stand apart in the source and are kept apart here.
How the values were obtained:
[1] = test system: Staphylococcus aureus ATCC 33591 (MRSA); assay: microbroth dilution MIC; format: cell-based; settings: Staphylococcus aureus; Table 15
[2] = test system: Enterococcus faecalis ATCC 51299 (VRE); assay: microbroth dilution MIC; format: cell-based; settings: Enterococcus faecalis; Table 15
[3] = test system: S. epidermis 12228; assay: microbroth dilution MIC; format: cell-based, Staphylococcus epidermidis; settings: Staphylococcus epidermidis, ATCC12228; Table 15; read-out: MIC Staphylococcus epidermidis ATCC 12228
[4] = test system: E. faecium 49624; assay: microbroth dilution MIC; format: cell-based, Enterococcus faecium; settings: Enterococcus faecium, ATCC49624; Table 15; read-out: MIC Enterococcus faecium ATCC 49624
[5] = test system: E. faecalis 29212; assay: microbroth dilution MIC; format: cell-based, Enterococcus faecalis; settings: Enterococcus faecalis, ATCC29212; Table 15; read-out: MIC Enterococcus faecalis ATCC 29212
[6] = test system: S. aureus 29213; assay: microbroth dilution MIC; format: cell-based, Staphylococcus aureus; settings: Staphylococcus aureus, ATCC29213; Table 15; read-out: MIC Staphylococcus aureus ATCC 29213
[7] = test system: Listeria monocytogenes 19114; assay: microbroth dilution MIC; format: cell-based; settings: Listeria monocytogenes, ATCC19114; Table 15; read-out: MIC Listeria monocytogenes ATCC 19114
[8] = test system: Listeria monocytogenes 19115; assay: microbroth dilution MIC; format: cell-based; settings: Listeria monocytogenes, ATCC19115; Table 15; read-out: MIC Listeria monocytogenes ATCC 19115
[9] = test system: Staphylococccus simulans 11631; assay: microbroth dilution MIC; format: cell-based, Staphylococcus simulans; settings: Staphylococcus simulans, ATCC11631; Table 15; read-out: MIC Staphylococcus simulans ATCC 11631
[10] = test system: Staphylococccus aureus 27734; assay: microbroth dilution MIC; format: cell-based, Staphylococcus aureus; settings: Staphylococcus aureus, ATCC27734; Table 15; read-out: MIC Staphylococcus aureus ATCC 27734
[11] = test system: Streptococcus pneumoniae 49619; assay: microbroth dilution MIC; format: cell-based; settings: Streptococcus pneumoniae, ATCC49619; Table 15; read-out: MIC Streptococcus pneumoniae ATCC 49619
[12] = test system: Bacillus anthracis 40/BA 100; assay: microbe, parasite or virus in culture; format: cell-based; settings: 40/BA100, read-out: MIC Bacillus anthracis 40/BA 100
[13] = test system: Bacillus anthracis 14578; assay: microbe, parasite or virus in culture; format: cell-based; settings: Bacillus anthracis, 14578, read-out: MIC Bacillus anthracis 14578
[14] = test system: Bacillus anthracis 28; assay: microbe, parasite or virus in culture; format: cell-based; settings: Bacillus anthracis, 28, read-out: MIC Bacillus anthracis 28
[15] = test system: Bacillus anthracis 62-8; assay: microbe, parasite or virus in culture; format: cell-based; settings: Bacillus anthracis, 628, read-out: MIC Bacillus anthracis 62-8
[16] = test system: Shigella dysenteriae ATCC 11835; assay: microbroth dilution MIC; format: cell-based; settings: ATCC11835, Table 15, read-out: MIC Shigella dysenteriae ATCC 11835
[17] = test system: Staphylococcus aureus GISA, ATCC 700787; assay: microbroth dilution MIC; format: cell-based; settings: ATCC700787, Table 15, read-out: MIC Staphylococcus aureus GISA, ATCC 700787
[18] = test system: Streptococcus pneumoniae ATCC 70674; assay: microbroth dilution MIC; format: cell-based; settings: ATCC70674, Table 15, read-out: MIC Streptococcus pneumoniae ATCC 70674
[19] = test system: Streptococcus pneumoniae ATCC 70676; assay: microbroth dilution MIC; format: cell-based; settings: ATCC70676, Table 15, read-out: MIC Streptococcus pneumoniae ATCC 70676
[20] = test system: B. subtilis 1A757; assay: microbe, parasite or virus in culture; format: cell-based, Bacillus subtilis; settings: for MIC: Bacillus subtilis, read-out: MIC B. subtilis 1A757
[21] = test system: S. aureus ATCC 6583P; assay: MIC with and without double stranded DNA; format: cell-based, Staphylococcus aureus; settings: Staphylococcus aureus, ATCC6583P, read-out: MIC S. aureus ATCC 6583P
[22] = CellTiter 96 Aqueous Non-Radioactive Cell Proliferation Assay; format: cell-based, human; settings: human, read-out: IC50 cytotoxicity, human mammary epithelial cells
[23] = test system: Human Breast Cancer Epithelial BT-20; assay: as above; format: cell-based; settings: for IC50: Homo sapiens
[24] = test system: Human Cervical Cancer Epithelial ME180; assay: as above; format: cell-based; settings: Homo sapiens, ME-180, read-out: IC50 Human Cervical Cancer Epthelial ME180
How it was run: (§1)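 Cells rested 5 h at 37° C after seeding, then treated in triplicate with two-fold serial dilutions of compound. A-549 and ME-180 were exposed for 48 h. After 1–4 h MTS reagent at 37° C, OD490 was read and corrected by subtracting medium-only blanks.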

[25] = test system: Human Lung Cancer Epithelial A549; assay: as above; format: cell-based; settings: Homo sapiens, A549, read-out: IC50 Human Lung Cancer Epithelial A549
How it was run: as §1

[26] = test system: Human Primary Mammary Epithelial HMEC; assay: as above; format: cell-based; settings: Homo sapiens, HMEC, read-out: IC50 Human Primary Mammary Epithelial HMEC, Table 12
[27] = test system: DNA synthesis in Bacillus subtilis; assay: macromolecular synthesis whole cell assay, [3H]thymidine incorporation; format: cell-based; settings: 5 min; 1×MIC
[28] = test system: RNA synthesis in Bacillus subtilis; assay: macromolecular synthesis whole cell assay, [3H]uridine incorporation; format: cell-based; settings: 1×MIC
[29] = test system: Protein synthesis in Bacillus subtilis; assay: macromolecular synthesis whole cell assay, [3H]amino acid mixture incorporation; format: cell-based; settings: 1×MIC
[30] = solubility in acetonitrile
[31] = test system: Plasmodium falciparum strain CSC-1 (Honduras); assay: antimalarial assay, 3H-phenylalanine radiobioassay in human red blood cells; settings: Plasmodium falciparum, Erythrocyte, read-out: IC50 Plasmodium falciparum

CS[C@H]1SC[C@H]2C(=O)N(C)[C@@H](C(C)C)C(=O)OC[C@@H](NC(=O)c3cnc4ccccc4n3)C(=O)N[C@@H](C)C(=O)N(C)[C@@H]1C(=O)N(C)[C@@H](C(C)C)C(=O)OC[C@@H](NC(=O)c1cnc3ccccc3n1)C(=O)N[C@@H](C)C(=O)N2C [Echinomycin, reference compound]
MIC [1]: 0.5 µg/mL (≈ 0.454 µM) | MIC [2]: 0.125 µg/mL (≈ 0.114 µM) | MIC [3]: 0.25 µg/mL (≈ 0.227 µM) | MIC [4]: ≤ 0.062 µg/mL | MIC [5]: 0.125 µg/mL (≈ 0.114 µM) | MIC [6]: 0.5 µg/mL (≈ 0.454 µM) | MIC [7]: 0.5 µg/mL (≈ 0.454 µM) | MIC [8]: 0.25 µg/mL (≈ 0.227 µM) | MIC [9]: 0.25 µg/mL (≈ 0.227 µM) | MIC [10]: 0.25 µg/mL (≈ 0.227 µM) | MIC [11]: < 0.0325 µg/mL | MIC [12]: 1.4 µg/mL (≈ 1.27 µM) | MIC [13]: 1.99 µg/mL (≈ 1.81 µM) | MIC [14]: 2.4 µg/mL (≈ 2.18 µM) | MIC [15]: 1.4 µg/mL (≈ 1.27 µM) | MIC [16]: 8 µg/mL (≈ 7.26 µM) | MIC [17]: 1 µg/mL (≈ 0.908 µM) | MIC [18]: < 0.0325 µg/mL | MIC [19]: < 0.0325 µg/mL | 1×MIC against Bacillus subtilis [20]: 0.25 micrograms/ml | MIC ([20]; 1A757, DNA +, 20 micrograms per well of sheared salmon sperm DNA): 8 µg/mL (≈ 7.26 µM) | MIC ([20]; 1A757, DNA −): 0.125 µg/mL (≈ 0.114 µM) | MIC ([21]; DNA +, 20 micrograms per well of sheared salmon sperm DNA): 16 µg/mL (≈ 14.5 µM) | MIC ([21]; DNA −): 0.5 µg/mL (≈ 0.454 µM) | IC50 at 48 h ([22]; Example 15): 0.0108 ± 0.0011 µg/mL (≈ 0.00981 µM) | IC50 at 48 h ([22]; text of Examples 18, 19): 4.8 µg/mL (≈ 4.36 µM) | IC50 ([23]; BT-20, read-out: IC50 Human Breast Cancer Eipthelial BT-20, Table 12): 0.0048 µg/mL (≈ 0.00436 µM) | IC50 ([23]; BT-20, read-out: IC50 human breast cancer cell line BT 20, text of Examples 15, 18, 19): 0.0048 µg/mL (≈ 0.00436 µM) | IC50 human breast cancer cell line BT 20 ([23]; text of Examples 15, 18, 19, listed as echnimonycin): 0.0065 µg/mL (≈ 0.0059 µM) | IC50 [24]: 0.023 µg/mL (≈ 0.0209 µM) | IC50 [25]: 0.145 µg/mL (≈ 0.132 µM) | IC50 [26]: 0.0108 µg/mL (≈ 0.00981 µM) | % [3H]thymidine (DNA synthesis) incorporation of that of the untreated culture [27]: 1% | % [3H]uridine (RNA synthesis) incorporation of that of the untreated culture ([28]; 5 min): 41% | % [3H]uridine (RNA synthesis) incorporation of that of the untreated culture ([28]; 10 min): 37% | % [3H]amino acid mixture (Protein synthesis) incorporation of that of the untreated culture ([29]; 5 min): 73% | % [3H]amino acid mixture (Protein synthesis) incorporation of that of the untreated culture ([29]; 10 min): 62% | Solubility in acetonitrile [30]: sparingly soluble | IC50 [31]: 0.00408 ± 0.0001 µg/mL (≈ 0.0037 µM)

From US7259004B1, “Endophytic streptomycetes from higher plants with biological activity” (Montana State University, priority 2002, dated 2007)
